Results as given in patent US6884792B2, “Bretylium compositions and kits and their use in preventing and treating cardiovascular conditions” (priority 1999, dated 2005).
Counter-ions that a name gives are not always drawn. Like-named read-outs stand apart in the source and are kept apart here.

Assays:
Mongrel dogs = test: Oral bretylium-tosylate/facilitating-anion combinations: VFT and EVRP; assay type: in vivo; conditions: dog; 50 milliamps
Procedure: A catheter electrode was passed under fluoroscopic observation via the jugular vein into the apex of the right ventricle and screwed into place in the myocardium of the right ventricle. […] After the control VFT and EVRP were measured, the compositions were orally administered in capsule form via a stomach tube. […] The VFT and EVRP were measured at various times following this administration. […] See also FIGS. 8-10.

dogs [1] = test: VFT 1-5 hours after injection of bretylium tosylate and/or β-receptor blockers; assay type: in vivo, dog
Procedure: The increase in efficacy of the bretylium cation afforded by administering the bretylium cation in combination with a β-receptor blocker was tested by administering via injection bretylium tosylate alone, various β-receptor blockers alone, and various combinations of bretylium tosylate and β-receptor blockers to dogs, and then measuring the ventricular fibrillation threshold of the dogs 1-5 hours after drug administration.

mongrel dog [2] = tested on: mongrel dog
Procedure: At time zero, a 5 milliamp stimulus was applied and a ventricular fibrillation threshold (VFT) was established.
At 1 hour and 20 minutes, the dog was given a 50 mg/kg dose of bretylium lauryl sulfate salt.
At three hours and twenty minutes, the dog's left anterior coronary artery was ligated to attempt to induce ventricular fibrillation by coronary occlusion.
Next, at three hours and thirty-seven minutes, 50 milliamps (the maximum current) was applied in an attempt to induce ventricular fibrillation and/or atrial fibrillation.

dog = conditions: orally administered to a dog
[3] = Procedure: To measure the partition coefficient for a facilitating anion in the presence of a bretylium compound, an acidified aqueous solution of the bretylium compound with a non-facilitating anion (e.g., tosylate, bromide or chloride) is first prepared. Sodium bicarbonate and a salt comprising the facilitating anion to be tested are then added to the aqueous solution. The salt comprising the facilitating anion should be added in an amount sufficient to provide about a 1:1 molar ratio of the facilitating anion to the bretylium cation. The sodium bicarbonate is provided in an amount sufficient to produce a preselected pH value. An equal volume of n-octanol is then added to this solution. The solution is shaken. The mixture is centrifuged to separate an octanol-rich layer and an aqueous-rich layer, and the distribution ratio of the bretylium cation between the octanol-rich phase and the aqueous-rich phase (that is, the partition coefficient) may be measured. This analytical approach is believed to provide a suitable model for evaluating the bioavailability of the bretylium cation when utilized with a facilitating anion.
Several formulations of the present invention were tested using an n-octanol/aqueous buffer system to measure the partition coefficients for the bretylium cation in the presence of the facilitating anions of those formulations. An acidified aqueous solution of bretylium tosylate was first prepared. Sodium bicarbonate and a salt comprising the facilitating anion to be tested was then added to the aqueous solution. The salt comprising the facilitating anion was added in an amount sufficient to provide a 1:1 molar ratio of the facilitating anion to the bretylium cation. The sodium bicarbonate was provided in an amount sufficient to produce one of 4 preselected pH values. An equal volume of n-octanol was then added to this solution and the solution was shaken. The mixture was centrifuged to separate an octanol layer and an aqueous layer, and the distribution ratio of the bretylium cation between the octanol-rich phase and the aqueous-rich phase (that is, the partition coefficient) was measured. This analytical approach provides a suitable model for evaluating the bioavailability of the bretylium cation in the compositions tested.
The aqueous bretylium tosylate solutions used in the procedure were prepared in the following manner. An amount of one of the buffer solutions described below (3.0 ml when the most acidic buffer solution was used, and 4.0 ml when the other 3 buffer solutions were used) was transferred to a beaker or an Erlenmeyer flask by pipette. To the buffer solution was added 50 mg of bretylium tosylate per ml of buffer solution and an equimolar amount of the sodium salt of the facilitating anion. For example, where the facilitating anion tested was di(2-ethylhexyl)sulfosuccinate, 54 mg of sodium di(2-ethylhexyl)sulfosuccinate was added per ml of buffer solution. […] Test solutions comprising other facilitating agents were prepared in a similar manner.
Each of the pharmaceutical compositions was tested using each of the following sodium bicarbonate buffer systems:
The first buffer solution was prepared by dissolving 1.0 g of sodium bicarbonate in 100 ml of 0.95M HCl. A pH meter equipped with a conventional glass electrode and a calomel reference electrode was used to measure the nominal pH of this solution and the other 3 buffer solutions.
The second buffer solution was prepared by dissolving 7.5 g of sodium bicarbonate in 100 ml of 0.95M HCl.
The third buffer solution was prepared by dissolving 8.0 g of sodium bicarbonate in 100 ml of 0.95M HCl.

mongrel dog [4] = test: Electrically induced atrial fibrillation, intravenous administration; assay type: in vivo; conditions: single intravenous dose, 15 mg bretylium tosylate per kg
Procedure: This electrode catheter delivered stimulating shocks consisting of a train of square wave pulses of 1 msec duration at 60 Hz. Atrial fibrillation was induced at a current of 6 milliamps.
Defibrillation was first attempted using a single dose of bretylium tosylate (Arnar-Stone, McGaw Park, Ill.) administered intravenously (the dose corresponded to 15 mg of bretylium tosylate per kg of the recipient).
Subsequently, a composition containing bretylium tosylate and aspirin was administered intravenously into the jugular vein. This composition was prepared using a commercially available tablet containing aspirin. The aspirin tablet was dissolved in warm water and filtered through a fine surgical gauze pad (to remove the bulk of the binder in the tablet). The resulting aspirin filtrate was then combined with an approximately equimolar amount of bretylium tosylate dissolved in 5% dextrose in water. Approximately 20 ml of this aqueous solution was injected into jugular vein of the atrially fibrillating dog (this dose corresponded to roughly 15 mg of bretylium tosylate per kg of the recipient and 6.5 mg of aspirin per Kg recipient).

dogs [5] = tested on: dogs
[6] = water/octanol, relative to chloride; cited from earlier work
[7] = intravenous, about 20 mg bretylium tosylate per kg

With `CC[N+](C)(C)Cc1ccccc1Br.O=C([O-])c1ccccc1O` [Bretylium Salicylate, bretylium salicylate] the “ventricular or atrial fibrillation despite maximum electrical stimulation” value (Mongrel dogs) was “did not occur”.
In the case of `CC(C)NCC(O)COc1ccc(CC(N)=O)cc1` (centres unmarked) [atenolol], the “Mean % Increase in VFT” value (dogs [1]; per kg: 0.05 mg atenolol, no bretylium, 1-5 hours) is reported as 330% ± 210%.
For `CCCCCCCCCCCCOS(=O)(=O)[O-].CC[N+](C)(C)Cc1ccccc1Br` [bretylium lauryl sulfate salt, bretylium lauryl sulfate], the “ventricular or atrial fibrillation despite maximum electrical stimulation” value (Mongrel dogs) was “did not occur”, the “rhythm 46 minutes after administration despite attempts to reinitiate atrial fibrillation with electrical stimulation” value (mongrel dog [2]; FIG. 8 legend) was “maintained a normal sinus rhythm” and the “fibrillation induced by electrical stimulation at 50 milliamps (maximum current)” value (mongrel dog [2]; at 3 h 37 min of experiment) was “No fibrillation (atrial or ventricular) could be induced”. For the same compound, the “time after dose at which atrial fibrillation ceased entirely” value (mongrel dog [2]; dog, in vivo, 50 mg/kg) was 19 min, the “time after dose to periods of normal sinus rhythm” value (mongrel dog [2]; dog, in vivo, 50 mg/kg) was “Approximately 18 minutes” and the “ventricular fibrillation after release of the coronary occlusion” value (mongrel dog [2]; following two minutes after release at 3 h 35 min) was “no ventricular fibrillation was observed”. For the same compound, the “ventricular fibrillation on ligation of left anterior coronary artery” value (mongrel dog [2]; ligated at 3 h 20 min of experiment, 2 h after 50 mg/kg dose) was “No ventricular fibrillation was observed” and the antifibrillatory activity (dog) was “active antifibrilant”.
For `CC[N+](C)(C)Cc1ccccc1Br.Cc1ccc(S(=O)(=O)[O-])cc1` [bretylium tosylate, 2-bromobenzylethyldimethylammonium p-toluenesulfonate, reference compound], the “PARTITION COEFFICIENT” value ([3]; pH 0.8) was 0.33, the “PARTITION COEFFICIENT” value ([3]; pH 2.1) was 0.48 and the “PARTITION COEFFICIENT” value ([3]; pH 5.5) was 0.45. The “PARTITION COEFFICIENT” value ([3]; pH 7.7) was 0.49, the “effect on atrial fibrillation” value (mongrel dog [4]) was “No effect” and the “Mean % Increase in VFT” value (dogs [1]; per kg: 20 mg bretylium tosylate, no β-receptor blocker, 1-5 hours after administration) was 100-200% (no standard. The “time after administration at which a substantial increase in ventricular fibrillation threshold began” value (dogs [5]; [7]) was 12 to 15 min and the “time after administration of peak increase in ventricular fibrillation threshold” value (dogs [5]; [7]) was “About 3 hours”.
With `CCCCC(CC)COP(=O)(O)OCC(CC)CCCC` (centres unmarked) [di(2-ethylhexyl)phosphate] the “PARTITION COEFFICIENT” value ([3]; pH 0.8) was 0.35, the “PARTITION COEFFICIENT” value ([3]; pH 2.2) was 0.49 and the “PARTITION COEFFICIENT” value ([3]; pH 5.5) was 0.51. For the same compound, the “PARTITION COEFFICIENT” value ([3]; pH 7.7) was 2.33.
In the case of `CCCCC(CC)COC(=O)CC(C(=O)OCC(CC)CCCC)S(=O)(=O)O` (centres unmarked) [di(2-ethylhexyl)sulfosuccinate], the “PARTITION COEFFICIENT” value ([3]; pH 5.5) is reported as 4.16, the “PARTITION COEFFICIENT” value ([3]; pH 5.6) is reported as 4.94 and the “PARTITION COEFFICIENT” value ([3]; pH 7) is reported as 5.03. The “PARTITION COEFFICIENT” value ([3]; pH 7.7) was 3.61.
In the case of `COC(=O)CCc1ccc(OCC(O)CNC(C)C)cc1` (centres unmarked) [esmolol], the “Mean % Increase in VFT” value (dogs [1]; per kg: 25 to 300 μg esmolol, no bretylium, 1-5 hours) is reported as “no significant increase”.
For `COCCc1ccc(OCC(O)CNC(C)C)cc1` (centres unmarked) [metoprolol], the “Mean % Increase in VFT” value (dogs [1]; per kg: 0.05 mg metoprolol, no bretylium, 1-5 hours) was 96% ± 70%.
In the case of `CC(C)NCC(O)COc1cccc2ccccc12` (centres unmarked) [propranolol], the “Mean % Increase in VFT” value (dogs [1]; per kg: 0.075 mg propranolol, no bretylium, 1-5 hours) is reported as 110% ± 40% and the “increase in the ventricular fibrillation threshold” value (dogs [5]; intravenous propranolol alone, 0.05 to 0.5 mg/kg) is reported as 110%±40%.
In the case of `Cc1ccc(S(=O)(=O)O)cc1` [tosylate anion, tosylate], the “organic/aqueous phase distribution constant (K)” value [6] is listed as “about 320”.
For lauryl sulfate, the “PARTITION COEFFICIENT” value ([3]; n-octanol/buffer, nominal pH 0.8, 1:1 molar facilitating anion:bretylium tosylate) was 1.91, the “PARTITION COEFFICIENT” value ([3]; n-octanol/buffer, nominal pH 2.2, 1:1 molar facilitating anion:bretylium tosylate) was 3.54 and the “PARTITION COEFFICIENT” value ([3]; n-octanol/buffer, nominal pH 5.5, 1:1 molar facilitating anion:bretylium tosylate) was 3.71. For the same compound, the “PARTITION COEFFICIENT” value ([3]; n-octanol/buffer, nominal pH 7.0, 1:1 molar facilitating anion:bretylium tosylate) was 4.01.
